Publication PMC10198811 (The Pediatric infectious disease journal, 2023)
≈ marks a conversion by molar mass, not a printed value. Read-outs that look alike come from different tables or passages of the source. *1 amine or outer side, *2 acyl side, *3 side chain or, on linkers, in order; H or OH if unused. Where a SMILES comes first, the peptide text is derived from it. Bridges are numbered along the chain shown (N, C = ends). [ ]: non-standard residue; d: D form. The star is where a group is joined. hTyr(3S-OH,4S-OH,3'-OSO3H) = N[C@H](C(=O)O)[C@H](O)[C@@H](O)c1ccc(O)c(OS(=O)(=O)O)c1; Orn(4R-OH,5R-OH) = O=C([C@H](C[C@@H](O)[C@@H](O)N[*:3])N[*:1])[*:2]; Pro(3S-OH,4S-Me) = C[C@H]1CN[C@H](C(=O)O)[C@H]1O; X1 = CCCCCOc1ccc(-c2cc(-c3ccc(C(=O)*)cc3)no2)cc1; Gln(3R-OH) = NC(=O)C[C@@H](O)[C@H](N)C(=O)O; Hyp = O=C(O)[C@@H]1C[C@@H](O)CN1

Legend:
F. solani isolate [1] = assay: Antifungal susceptibility testing; type: cell-based, F. solani complex; conditions: Fusarium solani
[2] = cited from earlier work
CYP2C19 = conditions: compared to ilaprazole and pantoprazole; cited from earlier work
F. solani isolate [3] = assay: In vitro synergy testing of the voriconazole and micafungin combination; type: cell-based, F. solani complex; conditions: tested at University of Texas Health Science Center in San Antonio
[4] = cited from earlier work; remark: listed apart in the source
Fusarium spp. = conditions: cited from earlier work

Question: With C[C@@H]1[C@H](O)[C@@H](C)/C=C/C=C/C=C/C=C/C=C/C=C/C=C/[C@H](O[C@@H]2O[C@H](C)[C@@H](O)[C@H](N)[C@@H]2O)C[C@@H]2O[C@](O)(C[C@@H](O)C[C@@H](O)[C@H](O)CC[C@@H](O)C[C@@H](O)CC(=O)O[C@H]1C)C[C@H](O)[C@H]2C(=O)O [amphotericin B] as the compound, how does the MIC (F. solani isolate [1]) read?
Answer: 8 µg/mL (≈ 8.66 µM)

Question: With CN/C(=N/CCSCc1nc[nH]c1C)NC#N [cimetidine] as the compound, how does the Toxicity [2] read?
Answer: central nervous system effects and anti-androgenic side effects

Question: For COc1ccc2nc([S@@+]([O-])Cc3ncc(C)c(OC)c3C)[nH]c2c1 [esomeprazole], which CYP2C19 inhibitory effect (CYP2C19) is on record?
Answer: more potent inhibitory effects

Question: Which MIC (F. solani isolate [1]) does the source give for C[C@@H](c1nc(-c2ccc(C#N)cc2)cs1)[C@](O)(Cn1cncn1)c1cc(F)ccc1F [isavuconazole] here?
Answer: > 16 µg/mL

Question: With Cc1c(OCC(F)(F)F)ccnc1C[S+]([O-])c1nc2ccccc2[nH]1 (stereo not shown) [lansoprazole] as the compound, how does the CYP2C19 inhibitory effect (CYP2C19) read?
Answer: more potent inhibitory effects

Question: Which Synergy of combination (F. solani isolate [3]) does the source give for CCCCCOc1ccc(-c2cc(-c3ccc(C(=O)N[C@H]4C[C@@H](O)[C@@H](O)NC(=O)[C@@H]5[C@@H](O)[C@@H](C)CN5C(=O)[C@H]([C@H](O)CC(N)=O)NC(=O)[C@H]([C@H](O)[C@@H](O)c5ccc(O)c(OS(=O)(=O)O)c5)NC(=O)[C@@H]5C[C@@H](O)CN5C(=O)[C@H]([C@@H](C)O)NC4=O)cc3)no2)cc1 [micafungin] (X1-[Orn(4R-OH,5R-OH)]T[Hyp][hTyr(3S-OH,4S-OH,3'-OSO3H)][Gln(3R-OH)][Pro(3S-OH,4S-Me)]; lactam 1-C) here?
Answer: did not reveal synergy

Question: What does the source list for COc1ccc2[nH]c([S+]([O-])Cc3ncc(C)c(OC)c3C)nc2c1 (stereo not shown) [omeprazole]?
Answer: CYP2C19 inhibitory effect (CYP2C19): more potent inhibitory effects; Omeprazole AUC with voriconazole compared to absence of co-administration ([4]; voriconazole co-administration): 4 times higher; Omeprazole Cmax with voriconazole compared to absence of co-administration ([4]; voriconazole co-administration): 2 times higher

Question: With CC[C@@H]([C@H](C)O)n1ncn(-c2ccc(N3CCN(c4ccc(OC[C@@H]5CO[C@@](Cn6cncn6)(c6ccc(F)cc6F)C5)cc4)CC3)cc2)c1=O [posaconazole] as the compound, how does the MIC (F. solani isolate [1]) read?
Answer: > 16 µg/mL

Question: Which results are given for C[C@@H](c1ncncc1F)[C@](O)(Cn1cncn1)c1ccc(F)cc1F [voriconazole]?
Answer: Repeat imaging of metastatic sites of proven or suspected infection (F. solani complex; 6 months after initiation of voriconazole therapy): significant interval improvement or resolution of all metastatic sites; Voriconazole-related toxicity (e.g., hepatotoxicity, neurotoxicity) (F. solani complex; ~10.7 mg/kg/dose PO q8h for several months, troughs 4 to 6 mcg/mL): without any evidence of voriconazole-related toxicity; Increase of voriconazole AUC ([4]; healthy subjects, with cimetidine 400 mg PO q12h): 23%; Increase of voriconazole AUC ([4]; healthy volunteers, with omeprazole 40 mg PO q24h): 40%; MIC (F. solani isolate [1]): 4 µg/mL (≈ 11.5 µM); MIC50 (Fusarium spp.): 8 µg/mL (≈ 22.9 µM)
